Patent US12410208B2, “(2-acetamidyl)thio-beta-D-galactopyranoside derivatives” (Idorsia Pharmaceuticals Ltd, priority 2020, dated 2025)
Read-outs that look alike come from different tables or passages of the source.

Tests used:
[1] = molecular target: biotinylated human Gal-3 (hGal-3) (Homo sapiens, UniProt P17931); test: Competitive binding assay: biotinylated hGal-3 binding to microplate-adsorbed asialofetuin (ASF), spectrophotometric
Outline: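 Competitive binding of biotinylated hGal-3 to plate-adsorbed asialofetuin was measured with serially diluted compounds over 3 h at 4° C. Bound protein was detected with streptavidin-peroxidase and ABTS substrate by absorbance. IC50 values are means of several measurements.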

human Gal-1 (hGal-1) = human Gal-1 (hGal-1) (Homo sapiens, UniProt P09382); test: Competitive binding assay: biotinylated hGal-1 binding to microplate-adsorbed asialofetuin (ASF), spectrophotometric; conditions: hGal-1 binding to asialofetuin; Table 15; R and S epimers of selected Examples also listed; read-out: IC50 (Galectin-1 inhibition)
Sequence of human Gal-1 (hGal-1) (P09382 whole entry): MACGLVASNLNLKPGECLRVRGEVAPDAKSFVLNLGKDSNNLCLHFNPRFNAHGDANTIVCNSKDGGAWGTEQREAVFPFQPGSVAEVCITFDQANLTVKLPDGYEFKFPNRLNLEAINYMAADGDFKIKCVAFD
Outline: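 Biotinylated hGal-1 (300-1000 ng/mL) incubated with compound on asialofetuin-coated plates 3 hours at 4 °C, washed, then streptavidin-peroxidase (80 ng/mL) 1 hour at 4 °C. ABTS substrate read spectrophotometrically; IC50 reported as mean of several measurements.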

[2] = Gal-3 inhibition, Table 4, read-out: IC50
[3] = Table 9, hGal-3, read-out: IC50 (Gal-3 inhibition)

Sequence of biotinylated human Gal-3 (hGal-3) (P17931 whole entry): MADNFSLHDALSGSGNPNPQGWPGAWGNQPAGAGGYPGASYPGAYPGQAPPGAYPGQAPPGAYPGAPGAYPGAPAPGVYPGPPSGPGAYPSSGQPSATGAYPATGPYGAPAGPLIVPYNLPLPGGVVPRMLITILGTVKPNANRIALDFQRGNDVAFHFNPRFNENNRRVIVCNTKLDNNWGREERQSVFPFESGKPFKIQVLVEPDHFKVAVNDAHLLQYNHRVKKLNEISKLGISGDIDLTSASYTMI

SMILES | IC50 [1, 2] [nM] | IC50 (human Gal-1 (hGal-1)) [nM] | IC50 ([1]; Gal-3 inhibition, Table 5, read-out: IC50) [nM] | IC50 ([1]; Table 10, hGal-3, read-out: IC50 (Gal-3 inhibition)) [nM] | IC50 [1, 3] [nM]
O=C(C(S[C@@H]1O[C@H](CO)[C@H](O)[C@H](n2cc(-c3cc(F)c(F)c(F)c3)nn2)[C@H]1O)C1(O)CCOCC1)N1CCCC1 (stereo partly drawn) [Example 2.41.211., 2-(((2S,3R,4S,5R,6R)-3,5-Dihydroxy-6-(hydroxymethyl)-4-(4-(3,4,5-trifluorophenyl)-1H-1,2,3-triazol-1-yl)tetrahydro-2H-pyran-2-yl)thio)-2-(4-hydroxytetrahydro-2H-pyran-4-yl)-1-(pyrrolidin-1-yl)ethan-1-one] | 130 | 330 |  |  | 
CN(CC1CCCC1)C(=O)[C@H](S[C@@H]1O[C@H](CO)[C@H](O)[C@H](n2cc(-c3cc(F)c(F)c(F)c3)nn2)[C@H]1O)C1(O)CCOCC1 [Example 2.41.212., (R)-N-(cyclopentylmethyl)-2-(((2S,3R,4S,5R,6R)-3,5-dihydroxy-6-(hydroxymethyl)-4-(4-(3,4,5-trifluorophenyl)-1H-1,2,3-triazol-1-yl)tetrahydro-2H-pyran-2-yl)thio)-2-(4-hydroxytetrahydro-2H-pyran-4-yl)-N-methylacetamide] | 80 | 200 |  |  | 
CN(CC1CCOCC1)C(=O)C(S[C@@H]1O[C@H](CO)[C@H](O)[C@H](n2cc(-c3cc(F)c(F)c(F)c3)nn2)[C@H]1O)C1(O)CCOCC1 (stereo partly drawn) [Example 2.41.213., 2-(((2S,3R,4S,5R,6R)-3,5-dihydroxy-6-(hydroxymethyl)-4-(4-(3,4,5-trifluorophenyl)-1H-1,2,3-triazol-1-yl)tetrahydro-2H-pyran-2-yl)thio)-2-(4-hydroxytetrahydro-2H-pyran-4-yl)-N-methyl-N-((tetrahydro-2H-pyran-4-yl)methyl)acetamide] | 80 | 200 |  |  | 
CCN(CC1CCOCC1)C(=O)C(S[C@@H]1O[C@H](CO)[C@H](O)[C@H](n2cc(-c3cc(F)c(F)c(F)c3)nn2)[C@H]1O)C1(O)CCOCC1 (stereo partly drawn) [Example 2.41.214., 2-(((2S,3R,4S,5R,6R)-3,5-Dihydroxy-6-(hydroxymethyl)-4-(4-(3,4,5-trifluorophenyl)-1H-1,2,3-triazol-1-yl)tetrahydro-2H-pyran-2-yl)thio)-N-ethyl-2-(4-hydroxytetrahydro-2H-pyran-4-yl)-N-((tetrahydro-2H-pyran-4-yl)methyl)acetamide] | 30 | 120 |  |  | 
CN(Cc1cn(C)cn1)C(=O)C(S[C@@H]1O[C@H](CO)[C@H](O)[C@H](n2cc(-c3cc(F)c(F)c(F)c3)nn2)[C@H]1O)C1(O)CCOCC1 (stereo partly drawn) [Example 2.41.215., 2-(((2S,3R,4S,5R,6R)-3,5-Dihydroxy-6-(hydroxymethyl)-4-(4-(3,4,5-trifluorophenyl)-1H-1,2,3-triazol-1-yl)tetrahydro-2H-pyran-2-yl)thio)-2-(4-hydroxytetrahydro-2H-pyran-4-yl)-N-methyl-N-((1-methyl-1H-imidazol-4-yl)methyl)acetamide] | 60 | 370 |  |  | 
CN(CCC1CCOCC1)C(=O)C(S[C@@H]1O[C@H](CO)[C@H](O)[C@H](n2cc(-c3cc(F)c(F)c(F)c3)nn2)[C@H]1O)C1(O)CCOCC1 (stereo partly drawn) [Example 2.41.216., 2-(((2S,3R,4S,5R,6R)-3,5-Dihydroxy-6-(hydroxymethyl)-4-(4-(3,4,5-trifluorophenyl)-1H-1,2,3-triazol-1-yl)tetrahydro-2H-pyran-2-yl)thio)-2-(4-hydroxytetrahydro-2H-pyran-4-yl)-N-methyl-N-(2-(tetrahydro-2H-pyran-4-yl)ethyl)acetamide] | 60 | 380 |  |  | 
CN(CCC1CCOCC1)C(=O)[C@@H](S[C@@H]1O[C@H](CO)[C@H](O)[C@H](n2cc(-c3cc(F)c(F)c(F)c3)nn2)[C@H]1O)C1(O)CCOCC1 [Example 2.41.216S., (S)-2-(((2S,3R,4S,5R,6R)-3,5-Dihydroxy-6-(hydroxymethyl)-4-(4-(3,4,5-trifluorophenyl)-1H-1,2,3-triazol-1-yl)tetrahydro-2H-pyran-2-yl)thio)-2-(4-hydroxytetrahydro-2H-pyran-4-yl)-N-methyl-N-(2-(tetrahydro-2H-pyran-4-yl)ethyl)acetamide] | 20 | 110 |  |  | 
CN(CCC1CC1)C(=O)C(S[C@@H]1O[C@H](CO)[C@H](O)[C@H](n2cc(-c3cc(F)c(F)c(F)c3)nn2)[C@H]1O)C1(O)CCOCC1 (stereo partly drawn) [Example 2.41.217., N-(2-Cyclopropylethyl)-2-(((2S,3R,4S,5R,6R)-3,5-dihydroxy-6-(hydroxymethyl)-4-(4-(3,4,5-trifluorophenyl)-1H-1,2,3-triazol-1-yl)tetrahydro-2H-pyran-2-yl)thio)-2-(4-hydroxytetrahydro-2H-pyran-4-yl)-N-methylacetamide] | 60 | 220 |  |  | 
CN(CC1CC1)C(=O)C(S[C@@H]1O[C@H](CO)[C@H](O)[C@H](n2cc(-c3cc(F)c(F)c(F)c3)nn2)[C@H]1O)C1(O)CCOCC1 (stereo partly drawn) [Example 2.41.218., N-(Cyclopropylmethyl)-2-(((2S,3R,4S,5R,6R)-3,5-dihydroxy-6-(hydroxymethyl)-4-(4-(3,4,5-trifluorophenyl)-1H-1,2,3-triazol-1-yl)tetrahydro-2H-pyran-2-yl)thio)-2-(4-hydroxytetrahydro-2H-pyran-4-yl)-N-methylacetamide] | 800 | 190 |  |  | 
CN(CC1CC1)C(=O)[C@H](S[C@@H]1O[C@H](CO)[C@H](O)[C@H](n2cc(-c3cc(F)c(F)c(F)c3)nn2)[C@H]1O)C1(O)CCOCC1 [Example 2.41.218R., (R)-N-(Cyclopropylmethyl)-2-(((2S,3R,4S,5R,6R)-3,5-dihydroxy-6-(hydroxymethyl)-4-(4-(3,4,5-trifluorophenyl)-1H-1,2,3-triazol-1-yl)tetrahydro-2H-pyran-2-yl)thio)-2-(4-hydroxytetrahydro-2H-pyran-4-yl)-N-methylacetamide] | 2250 | 19000 |  |  | 
CN(CC1CC1)C(=O)[C@@H](S[C@@H]1O[C@H](CO)[C@H](O)[C@H](n2cc(-c3cc(F)c(F)c(F)c3)nn2)[C@H]1O)C1(O)CCOCC1 [Example 2.41.218S., (S)-N-(Cyclopropylmethyl)-2-(((2S,3R,4S,5R,6R)-3,5-dihydroxy-6-(hydroxymethyl)-4-(4-(3,4,5-trifluorophenyl)-1H-1,2,3-triazol-1-yl)tetrahydro-2H-pyran-2-yl)thio)-2-(4-hydroxytetrahydro-2H-pyran-4-yl)-N-methylacetamide] | 20 | 50 |  |  | 
CN(CC(F)(F)F)C(=O)C(S[C@@H]1O[C@H](CO)[C@H](O)[C@H](n2cc(-c3cc(F)c(F)c(F)c3)nn2)[C@H]1O)C1(O)CCOCC1 (stereo partly drawn) [Example 2.41.219., 2-(((2S,3R,4S,5R,6R)-3,5-Dihydroxy-6-(hydroxymethyl)-4-(4-(3,4,5-trifluorophenyl)-1H-1,2,3-triazol-1-yl)tetrahydro-2H-pyran-2-yl)thio)-2-(4-hydroxytetrahydro-2H-pyran-4-yl)-N-methyl-N-(2,2,2-trifluoroethyl)acetamide] |  | 210 | 110 |  | 
CN(C(=O)C(S[C@@H]1O[C@H](CO)[C@H](O)[C@H](n2cc(-c3cc(F)c(F)c(F)c3)nn2)[C@H]1O)C1(O)CCOCC1)C1CCC1 (some centres unmarked) [Example 2.41.220.] |  | 30 |  | 50 | 
CN(C(=O)C(S[C@@H]1O[C@H](CO)[C@H](O)[C@H](n2cc(-c3cc(F)c(F)c(F)c3)nn2)[C@H]1O)C1(O)CCOCC1)c1ccccc1 (some centres unmarked) [Example 2.41.231.] |  | 80 |  |  | 110
CN(C(=O)[C@H](S[C@@H]1O[C@H](CO)[C@H](O)[C@H](n2cc(-c3cc(F)c(F)c(F)c3)nn2)[C@H]1O)C1(O)CCOCC1)c1ccccc1 [Example 2.41.231R.] |  | 8260 |  |  | 3440
CN(C(=O)[C@@H](S[C@@H]1O[C@H](CO)[C@H](O)[C@H](n2cc(-c3cc(F)c(F)c(F)c3)nn2)[C@H]1O)C1(O)CCOCC1)c1ccccc1 [Example 2.41.231S.] |  | 50 |  |  | 70
CCN(C(=O)C(S[C@@H]1O[C@H](CO)[C@H](O)[C@H](n2cc(-c3cc(F)c(F)c(F)c3)nn2)[C@H]1O)C1(O)CCOCC1)c1ccccc1 (stereo partly drawn) [Example 2.41.232., 2-(((2S,3R,4S,5R,6R)-3,5-Dihydroxy-6-(hydroxymethyl)-4-(4-(3,4,5-trifluorophenyl)-1H-1,2,3-triazol-1-yl)tetrahydro-2H-pyran-2-yl)thio)-N-ethyl-2-(4-hydroxytetrahydro-2H-pyran-4-yl)-N-phenylacetamide] |  | 60 |  |  | 90
CO[C@@H]1[C@@H](n2cc(-c3cc(F)c(F)c(F)c3)nn2)[C@@H](O)[C@@H](CO)O[C@H]1S[C@@H](C(=O)N(C)c1ccccn1)C1(O)CCC(F)(F)CC1 [Example 2.41.233R.I.] |  | 7100 |  |  | 7240
CN(C(=O)[C@H](S[C@@H]1O[C@H](CO)[C@H](O)[C@H](n2cc(-c3cc(F)c(F)c(F)c3)nn2)[C@H]1O)C1(O)CCOCC1)c1ccccn1 [Example 2.41.233R.] |  | 9800 |  |  | 8500
CO[C@@H]1[C@@H](n2cc(-c3cc(F)c(F)c(F)c3)nn2)[C@@H](O)[C@@H](CO)O[C@H]1S[C@H](C(=O)N(C)c1ccccn1)C1(O)CCC(F)(F)CC1 [Example 2.41.233S.I.] |  | 30 |  |  | 50
CN(C(=O)[C@@H](S[C@@H]1O[C@H](CO)[C@H](O)[C@H](n2cc(-c3cc(F)c(F)c(F)c3)nn2)[C@H]1O)C1(O)CCOCC1)c1ccccn1 [Example 2.41.233S.] |  | 30 |  |  | 40
CN(C(=O)[C@H](S[C@@H]1O[C@H](CO)[C@H](O)[C@H](n2cc(-c3cc(F)c(F)c(F)c3)nn2)[C@H]1O)C1(O)CCOCC1)c1cccnc1 [Example 2.41.234R] |  | 10900 |  |  | 7800
